One data set has as its target T1, Haspin (Homo sapiens, UniProt Q8TF76).
T1 sequence (Q8TF76 1-798): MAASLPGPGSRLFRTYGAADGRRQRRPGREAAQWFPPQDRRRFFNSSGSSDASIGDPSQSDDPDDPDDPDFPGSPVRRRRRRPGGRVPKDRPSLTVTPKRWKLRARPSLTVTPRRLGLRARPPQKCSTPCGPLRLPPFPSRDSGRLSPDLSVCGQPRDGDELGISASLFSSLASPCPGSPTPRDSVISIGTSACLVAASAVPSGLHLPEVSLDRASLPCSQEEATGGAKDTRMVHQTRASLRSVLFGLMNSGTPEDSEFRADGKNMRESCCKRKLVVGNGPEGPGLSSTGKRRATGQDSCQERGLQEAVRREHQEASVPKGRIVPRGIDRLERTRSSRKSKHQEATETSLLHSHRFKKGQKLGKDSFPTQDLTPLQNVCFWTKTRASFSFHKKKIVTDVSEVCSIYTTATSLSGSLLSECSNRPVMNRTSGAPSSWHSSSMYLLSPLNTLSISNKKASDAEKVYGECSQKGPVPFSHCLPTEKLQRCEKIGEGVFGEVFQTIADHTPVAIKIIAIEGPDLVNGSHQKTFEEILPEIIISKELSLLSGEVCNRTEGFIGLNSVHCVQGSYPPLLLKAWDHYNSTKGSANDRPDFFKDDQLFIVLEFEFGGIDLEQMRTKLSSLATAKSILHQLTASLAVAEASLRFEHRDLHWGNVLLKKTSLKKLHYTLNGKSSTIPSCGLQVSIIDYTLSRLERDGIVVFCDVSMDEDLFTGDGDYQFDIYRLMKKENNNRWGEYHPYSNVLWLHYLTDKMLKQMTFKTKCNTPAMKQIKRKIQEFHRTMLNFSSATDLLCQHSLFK
Put plainly: biochemical. The settings on record: read-out: % enzyme activity, 1 μM; Run 1, Run 2.

Another data set deals with CYP2B6 (Homo sapiens, UniProt P20813). Conditions: read-out: CYP2B6 IC50; human liver microsomes. For orientation: Liver microsomes are a subcellular fraction often used to study metabolism.
Another data set addresses MNK2 (Homo sapiens, UniProt Q9HBH9). The settings on record: 1 μM; Run 1, Run 2.
A further data set is described as follows: in vivo. The settings on record: female, CB17 SCID, mouse, po, 10 mg/kg.
The next data set is described as follows: in vitro. Conditions: human, Caco-2, pH 7.4.
The conditions of data set [1]: 10 mg/kg PO, relative to 8b.
The target in another data set is T2, ALK2/ACVR1 (Homo sapiens, UniProt Q04771).
T2 construct: purchased Reaction Biology Corporation
T2 sequence (Q04771 21-509): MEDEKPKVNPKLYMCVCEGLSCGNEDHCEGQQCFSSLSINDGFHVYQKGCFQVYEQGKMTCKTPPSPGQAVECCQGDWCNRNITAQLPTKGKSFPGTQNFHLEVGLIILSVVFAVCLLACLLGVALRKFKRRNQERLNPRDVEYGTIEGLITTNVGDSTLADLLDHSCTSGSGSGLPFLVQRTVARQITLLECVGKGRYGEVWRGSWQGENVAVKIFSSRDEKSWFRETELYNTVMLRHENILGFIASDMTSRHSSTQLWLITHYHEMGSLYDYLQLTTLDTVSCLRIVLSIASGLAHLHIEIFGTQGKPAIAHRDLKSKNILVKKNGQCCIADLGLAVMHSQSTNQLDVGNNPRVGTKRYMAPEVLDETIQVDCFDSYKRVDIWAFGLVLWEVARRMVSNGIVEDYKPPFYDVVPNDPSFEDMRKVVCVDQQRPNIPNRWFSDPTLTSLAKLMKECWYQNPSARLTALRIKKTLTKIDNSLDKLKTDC
The data set is classed as biochemical. The settings on record: biochemical ALK5 IC50 / ALK2 IC50.

Another data set concerns the target T3, DDR1 (Homo sapiens, UniProt Q08345).
T3 construct: purchased Reaction Biology Corporation
Put plainly: 375-member kinase panel. The data set is classed as biochemical. The settings on record: Run 1, Run 2.

Another data set concerns the target BLK (Homo sapiens, UniProt P51451). Conditions: 1 μM; Run 1, Run 2.

One may read the IC50 as the midpoint of a concentration-inhibition curve. In general, half-life refers to the time needed for the level to fall by half in the phase considered. The efflux ratio is a quotient of directional permeabilities that is used to spot active efflux.

T3 sequence (Q08345 19-913): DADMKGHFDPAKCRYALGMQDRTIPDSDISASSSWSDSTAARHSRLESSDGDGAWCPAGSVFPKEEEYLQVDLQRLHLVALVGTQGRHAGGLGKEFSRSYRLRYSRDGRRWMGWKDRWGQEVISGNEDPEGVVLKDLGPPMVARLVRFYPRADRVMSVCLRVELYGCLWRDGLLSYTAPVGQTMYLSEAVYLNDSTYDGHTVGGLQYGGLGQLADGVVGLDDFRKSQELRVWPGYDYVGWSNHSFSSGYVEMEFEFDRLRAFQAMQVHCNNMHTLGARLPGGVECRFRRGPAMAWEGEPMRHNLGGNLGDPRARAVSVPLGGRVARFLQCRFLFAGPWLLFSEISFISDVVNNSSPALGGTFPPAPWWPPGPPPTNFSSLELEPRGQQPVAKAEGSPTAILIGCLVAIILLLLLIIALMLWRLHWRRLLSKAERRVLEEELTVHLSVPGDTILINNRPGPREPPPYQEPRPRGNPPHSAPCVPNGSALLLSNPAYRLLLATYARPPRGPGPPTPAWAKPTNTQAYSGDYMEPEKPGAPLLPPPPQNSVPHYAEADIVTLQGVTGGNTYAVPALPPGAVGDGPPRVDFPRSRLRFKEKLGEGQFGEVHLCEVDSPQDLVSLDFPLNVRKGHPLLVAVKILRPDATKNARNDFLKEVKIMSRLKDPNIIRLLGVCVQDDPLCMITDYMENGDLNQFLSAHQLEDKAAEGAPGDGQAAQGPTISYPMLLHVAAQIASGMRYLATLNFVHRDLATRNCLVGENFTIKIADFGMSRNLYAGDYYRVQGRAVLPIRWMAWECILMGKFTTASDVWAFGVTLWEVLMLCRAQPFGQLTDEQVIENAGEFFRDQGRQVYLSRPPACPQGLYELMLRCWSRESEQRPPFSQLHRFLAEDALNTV
Sequence of MNK2 (Q9HBH9 whole entry): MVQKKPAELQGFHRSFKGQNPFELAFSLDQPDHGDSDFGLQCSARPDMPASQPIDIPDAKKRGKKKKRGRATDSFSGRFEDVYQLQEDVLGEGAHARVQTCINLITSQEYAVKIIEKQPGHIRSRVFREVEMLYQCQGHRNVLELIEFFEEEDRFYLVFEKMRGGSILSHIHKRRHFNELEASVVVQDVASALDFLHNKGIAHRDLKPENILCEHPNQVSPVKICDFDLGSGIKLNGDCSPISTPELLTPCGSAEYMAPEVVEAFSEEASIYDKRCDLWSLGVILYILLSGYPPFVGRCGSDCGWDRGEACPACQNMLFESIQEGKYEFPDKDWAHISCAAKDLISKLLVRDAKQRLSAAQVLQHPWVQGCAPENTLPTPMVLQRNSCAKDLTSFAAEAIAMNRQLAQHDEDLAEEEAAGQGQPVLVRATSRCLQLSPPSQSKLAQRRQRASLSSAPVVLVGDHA
Sequence of BLK (P51451 whole entry): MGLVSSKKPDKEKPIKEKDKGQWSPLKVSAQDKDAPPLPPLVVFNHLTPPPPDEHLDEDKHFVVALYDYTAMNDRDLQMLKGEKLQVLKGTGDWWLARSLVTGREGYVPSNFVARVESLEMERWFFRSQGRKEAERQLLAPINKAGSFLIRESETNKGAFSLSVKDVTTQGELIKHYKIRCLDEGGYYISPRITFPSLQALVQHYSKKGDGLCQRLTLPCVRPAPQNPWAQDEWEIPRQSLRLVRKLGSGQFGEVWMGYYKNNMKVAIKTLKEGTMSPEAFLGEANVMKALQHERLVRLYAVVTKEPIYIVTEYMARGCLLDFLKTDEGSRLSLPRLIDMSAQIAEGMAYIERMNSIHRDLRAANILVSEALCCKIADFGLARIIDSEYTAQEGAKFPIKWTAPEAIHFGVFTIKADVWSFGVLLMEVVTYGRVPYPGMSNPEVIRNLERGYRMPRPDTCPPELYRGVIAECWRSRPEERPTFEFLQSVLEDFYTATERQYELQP
Sequence of CYP2B6 (P20813 whole entry): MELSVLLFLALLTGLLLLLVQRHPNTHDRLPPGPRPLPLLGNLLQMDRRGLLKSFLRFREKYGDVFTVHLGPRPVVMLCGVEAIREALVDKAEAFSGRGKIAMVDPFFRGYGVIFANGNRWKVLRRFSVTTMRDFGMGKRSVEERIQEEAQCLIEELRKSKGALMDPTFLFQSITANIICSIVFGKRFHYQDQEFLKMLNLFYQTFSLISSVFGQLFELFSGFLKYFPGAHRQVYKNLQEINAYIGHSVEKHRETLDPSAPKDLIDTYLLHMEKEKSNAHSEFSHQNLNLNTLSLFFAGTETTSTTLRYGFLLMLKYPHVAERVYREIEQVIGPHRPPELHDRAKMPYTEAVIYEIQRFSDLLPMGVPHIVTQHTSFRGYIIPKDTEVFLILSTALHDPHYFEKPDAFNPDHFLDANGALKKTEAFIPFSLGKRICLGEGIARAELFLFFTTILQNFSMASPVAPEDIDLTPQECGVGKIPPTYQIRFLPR

In the case of `COc1cc(-c2cncc(-c3ccc(N4C[C@@H](C)N(C)[C@@H](C)C4)cc3)c2C)cc(F)c1C(N)=O` [Compound 26c, 2-Fluoro-6-methoxy-4-(4-methyl-5-(4-((3R,5S)-3,4,5-trimethylpiperazin-1-yl)phenyl)pyridin-3-yl)benzamide], the remaining activity at 1 µM at Haspin was 84.8%. In addition, the IC50 is > 5 µM in the data set on DLA ALK5, 0.1 µM with NanoBRET ALK2 and > 50 µM on CYP2B6. The “% enzyme activity” value at MNK2 was found to be 68.28%.

Regarding `COc1cc(-c2cncc(-c3ccc(N4CCN(C)CC4)cc3)c2C)cc(F)c1C(N)=O` [Compound 26a, 2-Fluoro-6-methoxy-4-(4-methyl-5-(4-(4-methylpiperazin-1-yl)phenyl)pyridin-3-yl)benzamide], the half-life at 24 h in “in vivo” is 2.56 h. For the same compound, the remaining activity at 1 µM on Haspin came to 83.3%; at DDR1 (read-out: % enzyme activity, 1 μM) it was 32.1%. For the same compound, the efflux ratio in “in vitro” was < 3. In [1], the “fold increase in AUCinf” value is > 13 fold. The “fold increase in Cmax” value in data set [1] is “greater than 17 fold”. For the same compound, the “Fold Selectivity (ALK5/ALK2)” value at ALK2/ACVR1 was 350. Moreover, the “% enzyme activity” value on DDR1 (1 μM) is 31.23%; at BLK, 95.94%.

For the origin of these results see article PMC8213057, “Targeting ALK2: An Open Science Approach to Developing Therapeutics for the Treatment of Diffuse Intrinsic Pontine Glioma” (Journal of Medicinal Chemistry, 2020).
